From PubChem BioAssay (NCI)
Values joined by “and” are separate entries in the source; they are usually repeats but may differ in a detail not shown here. Equal entries are not always repeated.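 In this assay, cells in 96-well plates receive the compound at five concentrations for 48 hours. Endpoints are linearly interpolated between the surrounding concentrations. Abbreviation: GI50, concentration required for 50% inhibition of growth. At the TGI there is no net growth.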

How the values were obtained:
Test in all cases: DTP human tumour cell line panel, 48 h
[1] = test system: EKVX NSCLC
[2] = test system: U251 CNS
[3] = test system: UACC-62 melanoma
[4] = test system: LOX IMVI melanoma
[5] = test system: SF-295 CNS
[6] = test system: NCI-H23 lung
[7] = test system: OVCAR-8 ovarian
[8] = test system: HCC-2998 colon
[9] = test system: NCI-H226 lung

Row | SMILES | GI50 [1] | TGI [1] | GI50 [2] | TGI [2] | GI50 [3] | TGI [3] | GI50 [4] | TGI [4] | GI50 [5] | TGI [5] | GI50 [6] | TGI [6] | GI50 [7] | TGI [7] | GI50 [8] | TGI [8] | GI50 [9] | TGI [9]
1 | CCC(c1cccc(O)c1)C(CC)c1cccc(O)c1 (stereo not drawn) | 4.54 µM | 35.7 µM | 3.63 µM | 14.7 µM | 3.67 µM | 16 µM | 4.07 µM | 16.9 µM | 3.99 µM | 19.7 µM | 4.08 µM | 16.6 µM | 12.8 µM | 35.2 µM | 5.18 µM | 18.3 µM | 12.1 µM | 26.3 µM
2 | Oc1ccccc1-c1nc2c3ccccc3c3ccccc3c2[nH]1 | 4.33 µM | 20.6 µM | 10.5 µM | 22.2 µM | 3.1 µM | 12.4 µM | 3.48 µM | 12 µM | 10.4 µM | 22.2 µM | 9.84 µM | 22.3 µM | 12.1 µM | 24.5 µM | 4.13 µM | 12.1 µM | 7.85 µM | 20.9 µM
3 | Nc1ccc(S(=O)(=O)NCc2nccs2)cc1 | – | 40.7 µM | – | 47.5 µM | – | 41.8 µM | – | 41.7 µM | – | > 100 µM | – | 58.9 µM | – | > 100 µM | – | – | – | 59 µM
4 | c1cc(CNC2C3CCC(C3)C2c2c[nH]c3ccccc23)cc(CNC2C3CCC(C3)C2c2c[nH]c3ccccc23)c1 (stereo not drawn) | – | 3.34 µM | – | 1.32 µM | – | 3.04 µM | – | – | – | – | 1.47 µM | 3.34 µM and 2.88 µM | – | – | – | – | – | –
5 | CNC(=S)N/N=C/c1ccc([N+](=O)[O-])s1 | – | > 10 µM | – | > 10 µM | – | > 10 µM | – | > 10 µM | – | > 10 µM | – | > 10 µM | – | > 10 µM | – | > 10 µM | – | > 10 µM
6 | Cc1c2ccc(N(C)c3ccnc(Nc4cccc(S(N)(=O)=O)c4)n3)cc2nn1C | 11.8 µM | > 25 µM | 10.9 µM | > 25 µM | 8.38 µM | > 25 µM | 6.86 µM | > 25 µM | 6.81 µM | > 19.9 µM | 7.49 µM | > 25 µM | 9.91 µM | > 25 µM | 18.9 µM | > 25 µM | 6.2 µM | > 25 µM
7 | CC(C)Oc1cc(O)c2c(c1)OCC=C2CCC(=O)O | – | 91.2 µM | – | > 100 µM | – | > 100 µM | – | > 100 µM | – | > 100 µM | – | > 100 µM | – | > 100 µM | – | – | – | 69.8 µM
8 | CCN(CC)CCNc1n[n+]([O-])c2ccccc2[n+]1[O-] | – | 44 µM | – | > 52.4 µM and 36.9 µM | – | 22.2 µM and 21.2 µM | – | 28.3 µM | – | 39.5 µM and 23.9 µM | 4.31 µM and 9.76 µM | 19 µM and 33.7 µM | – | 31.1 µM and 27 µM | – | 6.12 µM and 14.5 µM | – | 23.7 µM and 29.9 µM
9 | COC(=O)C1=C(C(=O)OC)SC(=C(Cl)C(=S)Sc2ccccc2N)S1 | – | – | 18.5 µM | 35.4 µM | 19.9 µM | 78.4 µM | 17.8 µM | 40.3 µM | 26.2 µM | 64.5 µM | 10.1 µM | 25.9 µM | 46.6 µM | > 100 µM | – | – | 30.7 µM | > 100 µM
10 | CCN(CC)CCCC(C)Nc1c2ccc(C)cc2nc2ccc(OC)cc12 (stereo not drawn) | 2.35 µM | 16 µM | 1.35 µM | 4.45 µM | 10.5 µM | 27.9 µM | 1.38 µM | 3.7 µM | 1.47 µM | 4.89 µM | 1.84 µM | 5.86 µM | 0.521 µM | 3.53 µM | – | – | – | –
11 | CCOc1c(Cl)cc(CNC(C)C(O)c2ccccc2)cc1OC (stereo not drawn) | – | – | 19.5 µM | 46.1 µM | 17.9 µM | 38.9 µM | 17 µM | 30.7 µM | 16.4 µM | 34.6 µM | 31.3 µM | > 100 µM | 19.8 µM | 48 µM | 16.6 µM | 32.7 µM | 33.5 µM | > 100 µM
12 | C[C@]12CC[C@@H]3c4ccc(O)cc4C(O)C[C@H]3[C@@H]1CCC2=O (stereo partly drawn) | 48.8 µM | > 100 µM | > 100 µM | > 100 µM | > 100 µM | > 100 µM | > 100 µM | > 100 µM | > 100 µM | > 100 µM | > 100 µM | > 100 µM | > 100 µM | > 100 µM | 84.2 µM | > 100 µM | > 100 µM | > 100 µM
13 | Cc1cc(-c2nnc3n2CCCCC3)c(C)n1-c1ccc(Cl)c(Cl)c1 | – | – | 14.5 µM | 31.2 µM | 4.03 µM | 17 µM | 12.1 µM | 32.2 µM | 16.4 µM | 52.5 µM | 12.3 µM | 35.2 µM | 15.4 µM | 64.1 µM | 14 µM | 29.3 µM | – | –
14 | N.N.N.N.N.N.O=N[O-].[Br-].[Co+3].[Co+3].[OH3+].[OH3+] | 74.3 µM | > 100 µM | – | – | > 100 µM | > 100 µM | > 100 µM | > 100 µM | > 100 µM | > 100 µM | > 100 µM | > 100 µM | – | – | 58.5 µM | > 100 µM | > 100 µM | > 100 µM
15 | Cc1ccc(NC(=O)Cn2c(Br)nc3c2c(=O)n(C)c(=O)n3C)cc1 | 10.7 µM | 25.9 µM | 2.26 µM | 5.75 µM | 11.1 µM | 24.2 µM | 6.27 µM | 19.4 µM | 9.84 µM | 21.8 µM | 6.31 µM | 22 µM | 4.89 µM | 21.6 µM | 15.5 µM | 28.9 µM | 2.07 µM | 4.76 µM
16 | FCc1ncc(-c2ccc(C(F)(F)F)cc2)c(NC2CCCCCC2)n1 | – | – | > 10 µM | > 10 µM | > 10 µM | > 10 µM | > 10 µM | > 10 µM | > 10 µM | > 10 µM | > 10 µM | > 10 µM | > 10 µM | > 10 µM | > 10 µM | > 10 µM | > 10 µM | > 10 µM
